Source: article PMC8319832, “Fine-Tuning of Alkaline Residues on the Hydrophilic Face Provides a Non-toxic Cationic α-Helical Antimicrobial Peptide Against Antibiotic-Resistant ESKAPE Pathogens” (Frontiers in Microbiology, 2021)
Values after ≈ are worked out from the molar mass of the structure shown.

Legend:
S. aureus 4188 [1] = assay: Drug sensitivity, Kirby-Bauer test; type: cell-based, Staphylococcus aureus; design: key: 'S' represents susceptibility; 'I' represents intermediate efficacy; 'R' represents resistance; conditions: clinical isolate
Experimental: (§1) The bacteria used in this study included the standard strains S. aureus ATCC29213 and ATCC25923, E. faecalis ATCC29212, E. coli ATCC25922 and ATCC35218, A. baumannii ATCC19606, K. pneumoniae ATCC700603 and P. aeruginosa ATCC27853, these strains were purchased from the China Center of Type Culture Collection (CCTCC). The antimicrobial activities of the peptides were also determined against clinically isolated strains S. aureus 4188, 9124, 1176, S. epidermidis 9092, 6943, 888, E. faecalis 901, E. faecium 898, E. coli 2678, 2687, K. pneumoniae 9126, P. aeruginosa 9014, 9042, and A. baumannii 906, 13012, 13079, 9068, these strains were acquired from Taihe Hospital, Hubei University of Medicine. The drug sensitivities of the clinical isolates to the antibiotics were determined by the Kirby-Bauer test ([Chinnambedu et al., 2020]).

S. aureus 1176 [2] = assay: Drug sensitivity, Kirby-Bauer test; type: cell-based, Staphylococcus aureus; design: key: 'S' represents susceptibility; 'I' represents intermediate efficacy; 'R' represents resistance; conditions: clinical isolate
Experimental: as §1

S. aureus 9124 [3] = assay: Drug sensitivity, Kirby-Bauer test; type: cell-based, Staphylococcus aureus; design: key: 'S' represents susceptibility; 'I' represents intermediate efficacy; 'R' represents resistance; conditions: clinical isolate, MRSA
Experimental: as §1

E. faecium 898 [4] = assay: Drug sensitivity, Kirby-Bauer test; type: cell-based, Enterococcus faecium; design: key: 'S' represents susceptibility; 'I' represents intermediate efficacy; 'R' represents resistance; conditions: clinical isolate
Experimental: as §1

E. faecalis 901 [5] = assay: Drug sensitivity, Kirby-Bauer test; type: cell-based; design: key: 'S' represents susceptibility; 'I' represents intermediate efficacy; 'R' represents resistance; conditions: clinical isolate
Experimental: as §1

S. epidermidis 6943 [6] = assay: Drug sensitivity, Kirby-Bauer test; type: cell-based; design: key: 'S' represents susceptibility; 'I' represents intermediate efficacy; 'R' represents resistance; conditions: clinical isolate, MRSE
Experimental: as §1

S. epidermidis 9092 [7] = assay: Drug sensitivity, Kirby-Bauer test; type: cell-based; design: key: 'S' represents susceptibility; 'I' represents intermediate efficacy; 'R' represents resistance; conditions: clinical isolate, MRSE
Experimental: as §1

S. epidermidis 888 [8] = assay: Drug sensitivity, Kirby-Bauer test; type: cell-based; design: key: 'S' represents susceptibility; 'I' represents intermediate efficacy; 'R' represents resistance; conditions: clinical isolate
Experimental: as §1

[9] = system: K. pneumoniae ATCC 700603; assay: MIC, broth dilution; type: cell-based, Klebsiella pneumoniae; conditions: CLSI broth dilution, MHB, 37°C, 20 h, OD630, at least three repeats; standard strain
Experimental: (§2) All experiments were repeated at least three times.
(§3) To study the influence of physiological ions on the antimicrobial activities of the peptides, The MICs of the peptides were also determined against the standard bacterial strains cultured in MHB containing various salts at their physiological concentrations (150 mM NaCl, 4.5 mM KCl, 1 mM MgCl2, 2 mM CaCl2, 6 μM NH4HCO3, and 4 μM FeCl3) ([Ma et al., 2016]).

E. coli ATCC35218 = assay: MIC, broth dilution; type: cell-based, Escherichia coli; conditions: CLSI broth dilution, MHB, 37°C, 20 h, OD630, at least three repeats; standard strain
Text: as §2

E. coli 2687 = assay: MIC, broth dilution; type: cell-based, Escherichia coli; conditions: CLSI broth dilution, MHB, 37°C, 20 h, OD630, at least three repeats; clinical isolate, ESBL
Text: as §2

E. coli 2678 = assay: MIC, broth dilution; type: cell-based, Escherichia coli; conditions: CLSI broth dilution, MHB, 37°C, 20 h, OD630, at least three repeats; clinical isolate, ESBL
Text: as §2

S. aureus 4188 [10] = assay: MIC, broth dilution; type: cell-based, Staphylococcus aureus; conditions: CLSI broth dilution, MHB, 37°C, 20 h, OD630, at least three repeats; clinical isolate, penicillin-resistant
Text: as §2

S. aureus 1176 [11] = assay: MIC, broth dilution; type: cell-based, Staphylococcus aureus; conditions: CLSI broth dilution, MHB, 37°C, 20 h, OD630, at least three repeats; clinical isolate
Text: as §2

S. aureus 9124 [12] = assay: MIC, broth dilution; type: cell-based, Staphylococcus aureus; conditions: CLSI broth dilution, MHB, 37°C, 20 h, OD630, at least three repeats; clinical isolate, MRSA
Text: as §2

P. aeruginosa 9042 = assay: MIC, broth dilution; type: cell-based, Pseudomonas aeruginosa; conditions: CLSI broth dilution, MHB, 37°C, 20 h, OD630, at least three repeats; clinical isolate
Text: as §2

P. aeruginosa 9014 = assay: MIC, broth dilution; type: cell-based, Pseudomonas aeruginosa; conditions: CLSI broth dilution, MHB, 37°C, 20 h, OD630, at least three repeats; clinical isolate, CRE, MDR
Text: as §2

K. pneumoniae 9126 = assay: MIC, broth dilution; type: cell-based, Klebsiella pneumoniae; conditions: CLSI broth dilution, MHB, 37°C, 20 h, OD630, at least three repeats; clinical isolate, CRE
Text: as §2

E. faecium 898 [13] = assay: MIC, broth dilution; type: cell-based, Enterococcus faecium; conditions: CLSI broth dilution, MHB, 37°C, 20 h, OD630, at least three repeats; clinical isolate
Text: as §2

A. baumannii ATCC 19606 = assay: MIC, broth dilution; type: cell-based, Acinetobacter baumannii; conditions: CLSI broth dilution, MHB, 37°C, 20 h, OD630, at least three repeats; standard strain
Experimental: as §2, §3

E. faecalis 901 [14] = assay: MIC, broth dilution; type: cell-based; conditions: CLSI broth dilution, MHB, 37°C, 20 h, OD630, at least three repeats; clinical isolate
Text: as §2

S. epidermidis 6943 [15] = assay: MIC, broth dilution; type: cell-based; conditions: CLSI broth dilution, MHB, 37°C, 20 h, OD630, at least three repeats; clinical isolate, MRSE
Text: as §2

S. epidermidis 9092 [16] = assay: MIC, broth dilution; type: cell-based; conditions: CLSI broth dilution, MHB, 37°C, 20 h, OD630, at least three repeats; clinical isolate, MRSE
Text: as §2

S. epidermidis 888 [17] = assay: MIC, broth dilution; type: cell-based; conditions: CLSI broth dilution, MHB, 37°C, 20 h, OD630, at least three repeats; clinical isolate
Text: as §2

A. baumannii 13079 = assay: MIC, broth dilution; type: cell-based, Acinetobacter baumannii; conditions: CLSI broth dilution, MHB, 37°C, 20 h, OD630, at least three repeats; clinical isolate, CRE, MDR
Text: as §2

A. baumannii 9068 = assay: MIC, broth dilution; type: cell-based, Acinetobacter baumannii; conditions: CLSI broth dilution, MHB, 37°C, 20 h, OD630, at least three repeats; clinical isolate, CRE, MDR
Text: as §2

A. baumannii 13012 = assay: MIC, broth dilution; type: cell-based, Acinetobacter baumannii; conditions: CLSI broth dilution, MHB, 37°C, 20 h, OD630, at least three repeats; clinical isolate, CRE, MDR
Text: as §2

A. baumannii 906 = assay: MIC, broth dilution; type: cell-based, Acinetobacter baumannii; conditions: CLSI broth dilution, MHB, 37°C, 20 h, OD630, at least three repeats; clinical isolate, CRE, MDR
Text: as §2

Molecule: CC[C@H]1OC(=O)[C@H](C)[C@@H](O[C@H]2C[C@@](C)(OC)[C@@H](O)[C@H](C)O2)[C@H](C)[C@@H](O[C@@H]2O[C@H](C)C[C@H](N(C)C)[C@H]2O)[C@](C)(O)C[C@@H](C)C(=O)[C@H](C)[C@@H](O)[C@]1(C)O [Erythromycin]
- Drug sensitivity of the isolate to the antibiotic (S. aureus 4188 [1]): S
- Drug sensitivity of the isolate to the antibiotic (S. aureus 1176 [2]): R
- Drug sensitivity of the isolate to the antibiotic (S. aureus 9124 [3]): R
- Drug sensitivity of the isolate to the antibiotic (E. faecium 898 [4]): R
- Drug sensitivity of the isolate to the antibiotic (E. faecalis 901 [5]): R
- Drug sensitivity of the isolate to the antibiotic (S. epidermidis 6943 [6]): R
- Drug sensitivity of the isolate to the antibiotic (S. epidermidis 9092 [7]): R
- Drug sensitivity of the isolate to the antibiotic (S. epidermidis 888 [8]): R

Molecule: CNC(C)C1CCC(N)C(OC2C(N)CC(N)C(OC3OCC(C)(O)C(NC)C3O)C2O)O1 (stereo not shown) [Gentamicin]
- Drug sensitivity of the isolate to the antibiotic (S. aureus 4188 [1]): S
- Drug sensitivity of the isolate to the antibiotic (S. aureus 1176 [2]): S
- Drug sensitivity of the isolate to the antibiotic (S. aureus 9124 [3]): S
- Drug sensitivity of the isolate to the antibiotic (E. faecium 898 [4]): R
- Drug sensitivity of the isolate to the antibiotic (E. faecalis 901 [5]): R
- Drug sensitivity of the isolate to the antibiotic (S. epidermidis 6943 [6]): S
- Drug sensitivity of the isolate to the antibiotic (S. epidermidis 9092 [7]): R
- Drug sensitivity of the isolate to the antibiotic (S. epidermidis 888 [8]): R

Molecule: CC[C@H](C)[C@H](NC(=O)CN)C(=O)NCC(=O)N[C@@H](C)C(=O)N[C@H](C(=O)N[C@@H](CC(C)C)C(=O)N[C@@H](CCCCN)C(=O)N[C@H](C(=O)N[C@@H](CC(C)C)C(=O)N[C@H](C(=O)N[C@H](C(=O)NCC(=O)N[C@@H](CC(C)C)C(=O)N1CCC[C@H]1C(=O)N[C@@H](C)C(=O)N[C@@H](CC(C)C)C(=O)N[C@H](C(=O)N[C@@H](CO)C(=O)N[C@@H](Cc1c[nH]c2ccccc12)C(=O)N[C@H](C(=O)N[C@@H](CCCCN)C(=O)N[C@@H](CCCNC(=N)N)C(=O)N[C@@H](CCCCN)C(=O)N[C@@H](CCCNC(=N)N)C(=O)N[C@@H](CCC(N)=O)C(=O)N[C@@H](CCC(N)=O)C(N)=O)[C@@H](C)CC)[C@@H](C)CC)[C@@H](C)O)[C@@H](C)O)C(C)C)C(C)C [Melittin]
- MIC [9]: 5 µg/mL (≈ 1.76 µM)
- MIC (E. coli ATCC35218): 5 µg/mL (≈ 1.76 µM)
- MIC (E. coli 2687): 2.5 µg/mL (≈ 0.878 µM)
- MIC (E. coli 2678): 5 µg/mL (≈ 1.76 µM)
- MIC (S. aureus 4188 [10]): 2.5 µg/mL (≈ 0.878 µM)
- MIC (S. aureus 1176 [11]): 5 µg/mL (≈ 1.76 µM)
- MIC (S. aureus 9124 [12]): 2.5 µg/mL (≈ 0.878 µM)
- MIC (P. aeruginosa 9042): 5 µg/mL (≈ 1.76 µM)
- MIC (P. aeruginosa 9014): 5 µg/mL (≈ 1.76 µM)
- MIC (K. pneumoniae 9126): 5 µg/mL (≈ 1.76 µM)
- MIC (E. faecium 898 [13]): 5 µg/mL (≈ 1.76 µM)
- MIC (A. baumannii ATCC 19606): 2.5 µg/mL (≈ 0.878 µM)
- MIC (E. faecalis 901 [14]): 2.5 µg/mL (≈ 0.878 µM)
- MIC (S. epidermidis 6943 [15]): 2.5 µg/mL (≈ 0.878 µM)
- MIC (S. epidermidis 9092 [16]): 2.5 µg/mL (≈ 0.878 µM)
- MIC (S. epidermidis 888 [17]): 2.5 µg/mL (≈ 0.878 µM)
- MIC (A. baumannii 13079): 2.5 µg/mL (≈ 0.878 µM)
- MIC (A. baumannii 9068): 2.5 µg/mL (≈ 0.878 µM)
- MIC (A. baumannii 13012): 2.5 µg/mL (≈ 0.878 µM)
- MIC (A. baumannii 906): 2.5 µg/mL (≈ 0.878 µM)

Molecule: CO[C@H]1/C=C/O[C@@]2(C)Oc3c(C)c(O)c4c(O)c(c(/C=N/N5CCN(C)CC5)c(O)c4c3C2=O)NC(=O)/C(C)=C\C=C\[C@H](C)[C@H](O)[C@@H](C)[C@@H](O)[C@@H](C)[C@H](OC(C)=O)[C@@H]1C [Rifampin]
- Drug sensitivity of the isolate to the antibiotic (S. aureus 4188 [1]): S
- Drug sensitivity of the isolate to the antibiotic (S. aureus 1176 [2]): S
- Drug sensitivity of the isolate to the antibiotic (S. aureus 9124 [3]): S
- Drug sensitivity of the isolate to the antibiotic (E. faecium 898 [4]): R
- Drug sensitivity of the isolate to the antibiotic (E. faecalis 901 [5]): R
- Drug sensitivity of the isolate to the antibiotic (S. epidermidis 6943 [6]): S
- Drug sensitivity of the isolate to the antibiotic (S. epidermidis 9092 [7]): S
- Drug sensitivity of the isolate to the antibiotic (S. epidermidis 888 [8]): S

Molecule: Penicillin
- Drug sensitivity of the isolate to the antibiotic (S. aureus 4188 [1]): R
- Drug sensitivity of the isolate to the antibiotic (S. aureus 1176 [2]): R
- Drug sensitivity of the isolate to the antibiotic (S. aureus 9124 [3]): R
- Drug sensitivity of the isolate to the antibiotic (E. faecium 898 [4]): R
- Drug sensitivity of the isolate to the antibiotic (E. faecalis 901 [5]): S
- Drug sensitivity of the isolate to the antibiotic (S. epidermidis 6943 [6]): R
- Drug sensitivity of the isolate to the antibiotic (S. epidermidis 9092 [7]): R
- Drug sensitivity of the isolate to the antibiotic (S. epidermidis 888 [8]): S
